Values quoted from earlier work, collected in US20220143227A1, “Method of Treatment of Neuroendocrine Tumors That Over-Express Somatostatatin Receptors” (ADVANCED ACCELERATOR APPLICATIONS, priority 2015, published 2022).
Like-named read-outs stand apart in the source and are kept apart here.

How the values were obtained:
[1] = system: progressive neuroendocrine tumors of pancreatic origin, and NETs of gastrointestinal (GI) or lung origin; conditions: Phase 3 trials
[2] = system: human xenograft tumor model of NET; conditions: in vivo
lymphocytes = conditions: B- versus T-lymphocytes
[3] = human, in vivo
pos-tdocetaxel CRPC = conditions: phase III trial

For `CO[C@H]1C[C@@H]2CC[C@@H](C)[C@@](O)(O2)C(=O)C(=O)N2CCCC[C@H]2C(=O)O[C@H]([C@H](C)C[C@@H]2CC[C@@H](OCCO)[C@H](OC)C2)CC(=O)[C@H](C)/C=C(\C)[C@@H](O)[C@@H](OC)C(=O)[C@H](C)C[C@H](C)/C=C/C=C/C=C/1C` [Everolimus], the PFS [1] is given as 11 months.
For `C[C@@H](O)[C@H](NC(=O)[C@@H]1CSSC[C@H](NC(=O)[C@@H](Cc2ccccc2)NC(=O)CN2CCN(CC(=O)[O-])CCN(CC(=O)[O-])CCN(CC(=O)[O-])CC2)C(=O)N[C@@H](Cc2ccc(O)cc2)C(=O)N[C@H](Cc2c[nH]c3ccccc23)C(=O)N[C@@H](CCCCN)C(=O)N[C@@H]([C@@H](C)O)C(=O)N1)C(=O)O.[177Lu+3]` [Lutathera, [177]Lutetium-DOTA[O]-Tyr[3]-Octreotate], the “CD86+ APC infiltration” value [2] is given as “increased CD86+ APC infiltration”, the “expression of CD86 on APC” value [2] is given as “increased expression of CD86” and the “lymphocyte toxicity, specificity” value (lymphocytes) is given as “more specific to B-lymphocytes”. The “severe hematologic toxicity Grade 3-4” value [3] was 3.1 % of the cases.
For “ipilimumab: antibody that targets the CTLA-4/B7 receptor complex, approved for unresectable or metastatic melanoma”, the “abscopal effect among patients with local response” value (advanced melanoma; 13 patients with local response) is given as 85%, the no local regression (advanced melanoma; 21 patients, RT after ipilimumab progression) is given as 38% and the “median OS” value (advanced melanoma; all 21 patients) is given as 13 months. The “median OS” value (advanced melanoma; patients with abscopal responses) was 22.4 months, the “median OS” value (advanced melanoma; patients without abscopal responses) was 8.3 months and the “improvement in OS with addition of ipilimumab to RT” value (pos-tdocetaxel CRPC) was “no significant improvement in OS”.
